Measured values reported in patent US20110039762A1, “TARGETED ANTIMICROBIAL MOIETIES” (C3 JIAN, INC., priority 2009, published 2011).
Entries after “also recorded” stand apart in the source; their conditions may differ.

test system: F. nucleatum; assay: Kill or inhibit growth/proliferation; morphology, biofilm and growth disruption (Tables 5, 6); format: cell-based, Fusobacterium nucleatum; design: key: A: Peptide aggregates; B: Less hyphal formation; Clumps; Diffuse clumps and small polyps; F: Diffuse growth; H: Thin; I: Growth inhibition; Microcolony formation; Rippled; Small polyps; Thick; W: Halo formation on top, microlonies on bottom; settings: not given; note: test concentration or dose not given here

Q: How did the “Organism, effect (morphology, biofilm and growth disruption)” value turn out when “PF-C064: peptide having multiple activities (DEEALEMGANLYAQFAIDFLNSKK; Peptide with targeting and/or antimicrobial activity)” was run?
A: F. nucleatum (T)

Q: Which “Organism, effect (morphology, biofilm and growth disruption)” value does the source give for “PF-C091: peptide having multiple activities (ASNTPRFVRLTLFNFYSKIWNVTHLFLFNNL; Peptide with targeting and/or antimicrobial activity)” here?
A: F. nucleatum (T)

Q: How did the “Organism, effect (morphology, biofilm and growth disruption)” value turn out when “PF-C069: peptide having multiple activities (NALMLREMQLAKNIKVEVTDVLSNKKYC; Peptide with targeting and/or antimicrobial activity)” was run?
A: F. nucleatum (T)

Q: How did the “Organism, effect (morphology, biofilm and growth disruption)” value turn out when “PF-C120: peptide having multiple activities (ASLSTMTFKVMELKELIILLCGLTMLMIQTEFV; Peptide with targeting and/or antimicrobial activity)” was run?
A: F. nucleatum (T)

Q: Which “Organism, effect (morphology, biofilm and growth disruption)” value does the source give for “PF-C181: peptide having multiple activities (KMRAGQVVFIYKLILVLLFYVLQKLFDLKKGCF; Peptide with targeting and/or antimicrobial activity)” here?
A: F. nucleatum (T)

Q: “PF-C137: peptide having multiple activities (QRMYWFKRGFETGDFSAGDTFAELK; Peptide with targeting and/or antimicrobial activity)” was tested. Which “Organism, effect (morphology, biofilm and growth disruption)” value did it give?
A: F. nucleatum (T)

Q: For “PF-C071: peptide having multiple activities (QVIVKIL; Peptide with targeting and/or antimicrobial activity)”, which “Organism, effect (morphology, biofilm and growth disruption)” value is on record?
A: F. nucleatum (T)

Q: How did the “Organism, effect (morphology, biofilm and growth disruption)” value turn out when “PF-C143: peptide having multiple activities (VVFGGGDRLV; Peptide with targeting and/or antimicrobial activity)” was run?
A: F. nucleatum (C)

test system: microorganisms (e.g., bacteria, yeasts, fungi); assay: Targeting peptide binding to target microorganisms (Table 3); settings: peptide binding in aqueous buffers varied by peptide solubility; preferably 1x PBS

Q: With “PF-C064: peptide having multiple activities (DEEALEMGANLYAQFAIDFLNSKK; Peptide with targeting and/or antimicrobial activity)” as the substance, how does the “Target(s) (microorganisms bound by the targeting peptide)” value read?
A: A. naeslundii; also recorded: F. nucleatum; also recorded: P. gingivalis; also recorded: S. mutans; also recorded: T. denticola

Q: For “PF-C091: peptide having multiple activities (ASNTPRFVRLTLFNFYSKIWNVTHLFLFNNL; Peptide with targeting and/or antimicrobial activity)”, which “Target(s) (microorganisms bound by the targeting peptide)” value is on record?
A: A. naeslundii; also recorded: F. nucleatum; also recorded: P. gingivalis; also recorded: S. mutans; also recorded: T. denticola

Q: For “PF-C069: peptide having multiple activities (NALMLREMQLAKNIKVEVTDVLSNKKYC; Peptide with targeting and/or antimicrobial activity)”, which “Target(s) (microorganisms bound by the targeting peptide)” value is on record?
A: A. naeslundii; also recorded: F. nucleatum; also recorded: P. gingivalis; also recorded: S. mutans; also recorded: T. denticola

Q: For “PF-C120: peptide having multiple activities (ASLSTMTFKVMELKELIILLCGLTMLMIQTEFV; Peptide with targeting and/or antimicrobial activity)”, which “Target(s) (microorganisms bound by the targeting peptide)” value is on record?
A: A. naeslundii; also recorded: F. nucleatum; also recorded: P. gingivalis; also recorded: S. mutans; also recorded: T. denticola

Q: For “PF-C181: peptide having multiple activities (KMRAGQVVFIYKLILVLLFYVLQKLFDLKKGCF; Peptide with targeting and/or antimicrobial activity)”, which “Target(s) (microorganisms bound by the targeting peptide)” value is on record?
A: P. gingivalis

Q: “PF-C137: peptide having multiple activities (QRMYWFKRGFETGDFSAGDTFAELK; Peptide with targeting and/or antimicrobial activity)” was tested. Which “Target(s) (microorganisms bound by the targeting peptide)” value did it give?
A: A. naeslundii; also recorded: F. nucleatum; also recorded: P. gingivalis; also recorded: S. mutans

Q: For “PF-C071: peptide having multiple activities (QVIVKIL; Peptide with targeting and/or antimicrobial activity)”, which “Target(s) (microorganisms bound by the targeting peptide)” value is on record?
A: A. naeslundii; also recorded: F. nucleatum; also recorded: S. mutans

Q: Which “Target(s) (microorganisms bound by the targeting peptide)” value does the source give for “PF-C143: peptide having multiple activities (VVFGGGDRLV; Peptide with targeting and/or antimicrobial activity)” here?
A: A. naeslundii; also recorded: F. nucleatum; also recorded: P. gingivalis; also recorded: S. mutans; also recorded: T. denticola

test system: microorganisms; assay: Peptides having multiple activities (targeting/binding, antimicrobial, growth or phenotype altering); settings: not given
Description: In certain embodiments, peptides described herein can have multiple activities. Thus for example, a peptide can have both binding/targeting activity and antimicrobial activity. Such peptides can be used, e.g., in a chimeric construct, for any or all of these properties. Thus, for example, a peptide designated “B” in Table 8 can be used as a targeting peptide. If it is also designated G or M it can also be used for antimicrobial activity.

Q: With “PF-C064: peptide having multiple activities (DEEALEMGANLYAQFAIDFLNSKK; Peptide with targeting and/or antimicrobial activity)” as the substance, how does the Activities read?
A: G B

Q: “PF-C091: peptide having multiple activities (ASNTPRFVRLTLFNFYSKIWNVTHLFLFNNL; Peptide with targeting and/or antimicrobial activity)” was tested. Which Activities did it give?
A: G B

Q: For “PF-C069: peptide having multiple activities (NALMLREMQLAKNIKVEVTDVLSNKKYC; Peptide with targeting and/or antimicrobial activity)”, which Activities is on record?
A: G B

Q: For “PF-C120: peptide having multiple activities (ASLSTMTFKVMELKELIILLCGLTMLMIQTEFV; Peptide with targeting and/or antimicrobial activity)”, which Activities is on record?
A: G B

Q: With “PF-C181: peptide having multiple activities (KMRAGQVVFIYKLILVLLFYVLQKLFDLKKGCF; Peptide with targeting and/or antimicrobial activity)” as the substance, how does the Activities read?
A: G B

Q: Which Activities does the source give for “PF-C137: peptide having multiple activities (QRMYWFKRGFETGDFSAGDTFAELK; Peptide with targeting and/or antimicrobial activity)” here?
A: G B

Q: Which Activities does the source give for “PF-C071: peptide having multiple activities (QVIVKIL; Peptide with targeting and/or antimicrobial activity)” here?
A: G B

Q: For “PF-C143: peptide having multiple activities (VVFGGGDRLV; Peptide with targeting and/or antimicrobial activity)”, which Activities is on record?
A: G B
